The values below come from patent US4985409A, “Adenosine derivatives and pharmaceutical composition thereof” (Nippon Zoki Pharmaceutical Co., Ltd., priority 1989, dated 1991).

Data set [1] can be described thus: Acute toxicity test (oral LD50, death rate for 14 days). The settings on record: mouse, in vivo, ddY-strain male mice. The protocol: The test compounds of the present invention, which were dissolved or suspended in 0.5% carboxymethylcellulose (C.M.C.) aqueous solution, were orally administered to groups of 2 to 5 ddY-strain male mice, and the LD50 values were calculated based on the death rate for 14 days thereafter.

For data set [2], the system named is spontaneously hypertensive rats (SHR). Nature of the data set: Antihypertensive activity (blood pressure in spontaneously hypertensive rats, oral). The data set is classed as in vivo. The note with it: mean ±S.E. As to the method: The test compounds, which were dissolved or suspended in 0.5% C.M.C. aqueous solution, were orally administered to groups of 3 spontaneously hypertensive rats (SHR), 33 to 36 weeks old, which were fasted for 20 hours before drug administration. Blood pressure was measured before and 2 hours after the administration of the test drug.

Where [3] appears, read: Rattus norvegicus, 2 hours after oral 3 mg/kg, read-out: Blood pressure (Decrease %).
Setting [4] is: Rattus norvegicus, 2 hours after oral 0.3 mg/kg, read-out: Blood pressure (Decrease %).

What is called LD50 is the dose expected to kill half of the subjects tested. The low end stands for greater toxicity, the high end for lower toxicity. For the compound `CO[C@@H]1[C@H](O)[C@@H](CO)O[C@H]1n1cnc2c(NCc3cccc4ccccc34)ncnc21` [Compound 8, N^6-(1-naphthyl)methyl-2'-O-methyladenosine], the LD50 at 336 h in data set [1] was 230 mg/kg. Also, in data set [2] (2 hours after oral 3 mg/kg), the “Blood pressure 2 hrs” value is on record as 140 ± 7 mmHg. Besides, the inhibition in vivo at 3 mg/kg in data set [2] (setting [3]) was 36.2 ± 5.7%.
`CO[C@@H]1[C@H](O)[C@@H](CO)O[C@H]1n1cnc2c(NCC(c3ccccc3)c3ccccc3)ncnc21` [Compound 5, N^6-(2,2-diphenylethyl)-2'-O-methyladenosine]: the “Blood pressure 2 hrs” value in data set [2] (2 hours after oral 3 mg/kg) amounted to 148 ± 19 mmHg. The inhibition in vivo at 3 mg/kg in data set [2] (setting [3]) is 30 ± 8.4%.
In the case of `CO[C@@H]1[C@H](O)[C@@H](CO)O[C@H]1n1cnc2c(NC3CCCCC3)ncnc21` [Compound 2, N^6-cyclohexyl-2'-O-methyladenosine], the “Blood pressure 2 hrs” value in data set [2] (2 hours after oral 0.3 mg/kg) is listed as 129 ± 8 mmHg. Also, in data set [2] (setting [4]), the inhibition in vivo at 0.3 mg/kg was found to be 37.5 ± 1.7%.
Taken in the same sequence, the figures for `CO[C@@H]1[C@H](O)[C@@H](CO)O[C@H]1n1cnc2c(NC3CCCC3)ncnc21` [Compound 1, N^6-cyclopentyl-2'-O-methyladenosine] were 98 ± 8 mmHg and 56.5 ± 5.5%.
As to `CO[C@@H]1[C@H](O)[C@@H](CO)O[C@H]1n1cnc2c(NC3CCCc4ccccc43)ncnc21` (stereo partly shown) [Compound 16, N^6-(1-tetrahydronaphthyl)-2'-O-methyladenosine], the LD50 at 336 h in data set [1] worked out at 230 mg/kg. Besides, the “Blood pressure 2 hrs” value in data set [2] (2 hours after oral 3 mg/kg) is 109 ± 9 mmHg. Besides, the inhibition in vivo at 3 mg/kg in data set [2] (setting [3]) was 47.2 ± 4.2%.
As to `CO[C@@H]1[C@H](O)[C@@H](CO)O[C@H]1n1cnc2c(NC3CCc4ccccc4C3)ncnc21` (stereo partly shown) [Compound 17, N^6-(2-tetrahydronaphthyl)-2'-O-methyladenosine], the “Blood pressure 2 hrs” value in data set [2] (2 hours after oral 3 mg/kg) is listed as 187 ± 7 mmHg. In addition, in data set [2] (setting [3]), the inhibition in vivo at 3 mg/kg was 14.5 ± 1.9%.
Turning to `CO[C@@H]1[C@H](O)[C@@H](CO)O[C@H]1n1cnc2c(NC3CCOc4ccccc43)ncnc21` (stereo partly shown) [Compound 24, N^6-(4-chromanyl)-2'-O-methyladenosine], the LD50 at 336 h in data set [1] is 250 mg/kg. Further, in data set [2] (2 hours after oral 1 mg/kg), the “Blood pressure 2 hrs” value is given as 98 ± 15 mmHg. Moreover, the inhibition in vivo at 1 mg/kg in data set [2] (Rattus norvegicus, 2 hours after oral 1 mg/kg, read-out: Blood pressure (Decrease %)) was 55.4 ± 5.6%.
Consider `CO[C@@H]1[C@H](O)[C@@H](CO)O[C@H]1n1cnc2c(NC3Cc4ccccc4C3)ncnc21` [Compound 12, N^6-(2,3-dihydro-1H-indene-2-yl)-2'-O-methyladenosine], for which, in data set [2] (2 hours after oral 10 mg/kg), the “Blood pressure 2 hrs” value worked out at 164 ± 5 mmHg. Further, in data set [2] (Rattus norvegicus, 2 hours after oral 10 mg/kg, read-out: Blood pressure (Decrease %)), the inhibition in vivo at 10 mg/kg came out at 22.7 ± 2.2%.
Turning to `CO[C@@H]1[C@H](O)[C@@H](CO)O[C@H]1n1cnc2c(NC3CCc4ccccc43)ncnc21` (stereo partly shown) [Compound 11, N^6-(2,3-dihydro-1H-indene-1-yl)-2'-O-methyladenosine], the LD50 at 336 h in data set [1] was 450 mg/kg. Moreover, the “Blood pressure 2 hrs” value in data set [2] (2 hours after oral 3 mg/kg) is 133 ± 21 mmHg. In data set [2] (setting [3]), the inhibition in vivo at 3 mg/kg amounted to 41.3 ± 7%.
